Measured values as given in patent publication US10954214B2 (Janssen Pharmaceutica NV, priority 2016, dated 2021).

What was measured:
[1] = test system: IL10 secretion by TMD8 ABC-DLBCL cells; test: Human IL10 Mesoscale assay (TMD-8); format: cell-based; settings: Homo sapiens, TMD8; TMD-8 cells, 24 h
How it was run: (§1)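 100,000 cells/well treated with compound in 9 twofold steps from 15 μM to 58.6 nM (0.3% DMSO) for 24 h at 37° C; supernatant cytokine measured by MSD electrochemiluminescence sandwich immunoassay. DMSO wells set maximum signal, BTK inhibitor RN486 (30 nM to 131 pM) set maximum inhibition.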

OCI-Ly3 cells = test: 4-day proliferation assay, OCI-Ly3; format: cell-based, human; settings: Homo sapiens, 96 h, 4 days incubation, CellTiterGLO, read-out: Anti-proliferation: OCI-LY-3 IC50
How it was run: (§2)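 Each line was plated at 10,000 cells per well for linear growth, with no beta-mercaptoethanol during the assay. OCI-Ly3 cells were below passage 10.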

[2] = biological target: full-length MALT1 protein (Strep-MALT1(1-824)-His) (Homo sapiens (Human), UniProt Q9UDY8); test: MALT1 Biochemical Protease Assay (Ac-LRSR-AMC substrate); settings: 10 nM FL MALT1, 200 μM Ac-LRSR-AMC, 4 h at RT; read-out: MALT1_Biochemical activity (Ac-LRSR-amc) IC50
Sequence of full-length MALT1 protein (Strep-MALT1(1-824)-His) (Q9UDY8 whole entry): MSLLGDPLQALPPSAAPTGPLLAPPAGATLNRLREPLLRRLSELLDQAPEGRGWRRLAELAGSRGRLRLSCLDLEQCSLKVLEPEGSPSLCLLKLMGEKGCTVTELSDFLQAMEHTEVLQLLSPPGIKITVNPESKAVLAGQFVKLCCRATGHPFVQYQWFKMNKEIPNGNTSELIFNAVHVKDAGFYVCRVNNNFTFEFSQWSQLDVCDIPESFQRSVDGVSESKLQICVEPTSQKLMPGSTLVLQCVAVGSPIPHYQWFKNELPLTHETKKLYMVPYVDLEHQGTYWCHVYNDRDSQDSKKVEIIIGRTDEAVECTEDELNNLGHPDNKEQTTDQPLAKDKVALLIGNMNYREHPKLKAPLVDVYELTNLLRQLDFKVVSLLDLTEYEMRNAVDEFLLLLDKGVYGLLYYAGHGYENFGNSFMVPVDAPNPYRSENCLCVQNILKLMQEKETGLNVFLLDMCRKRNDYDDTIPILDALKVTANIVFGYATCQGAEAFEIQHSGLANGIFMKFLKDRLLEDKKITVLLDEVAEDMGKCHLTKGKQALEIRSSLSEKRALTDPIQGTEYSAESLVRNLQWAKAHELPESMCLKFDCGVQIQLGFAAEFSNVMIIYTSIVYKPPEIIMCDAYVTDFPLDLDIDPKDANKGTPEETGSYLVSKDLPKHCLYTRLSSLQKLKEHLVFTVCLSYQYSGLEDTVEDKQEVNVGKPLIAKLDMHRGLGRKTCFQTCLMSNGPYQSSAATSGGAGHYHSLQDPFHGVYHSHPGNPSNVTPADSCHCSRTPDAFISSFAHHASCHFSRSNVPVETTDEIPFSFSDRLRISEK
How it was run: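 Fluorescence from AMC release off the quenched LRSR substrate was read after a 4 h reaction at RT. Values were normalised to no-enzyme and uninhibited controls and fitted for IC50 and Hill coefficient.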

[3] = test system: IL6 secretion by TMD8 ABC-DLBCL cells; test: Human IL6 Mesoscale assay (TMD-8); format: cell-based; settings: Homo sapiens, TMD8; TMD-8 cells, 24 h
How it was run: as §1

TMD8 cells = test: 4-day proliferation assay, TMD8; format: cell-based; settings: Homo sapiens, 96 h, 4 days incubation, CellTiterGLO, read-out: Anti-proliferation: TMD-8 IC50
How it was run: as §2

Jurkat cells = test: PMA Induced IL2 Production In Jurkat Cells; format: cell-based; settings: Homo sapiens, PMA/Ionomycin, 20 h, read-out: IL-2 prod h Jurkat PMA IC50
Protocol: Jurkat cells were maintained in complete RPMI 1640 media containing 10% fetal bovine serum, 10 mM HEPES, 100 units/mL of penicillin and 100 μg/mL of streptomycin. Prior to the assay, compounds were made 2- to 4-fold serial dilutions in DMSO. A volume of 10 μL of DMSO-diluted compound in each well were further diluted into 240 μL RPMI1640 complete media. Jurkat cells were harvested by centrifuge at 1200 RPM for 5 min, washed one time with RPMI 1640 media, and suspended in fresh complete RPMI 1640 media at concentration of 1.25×10^6 cell/mL. A volume of 160 uL of Jurkat cells (2×10^5 cells) were seeded in each well of 96 well plate-bottom plates. A volume of 20 uL of diluted compound in RMPI 1640 complete media were added to each well and incubated with Jurkat cells for 30 min at 37° C. in a 5% CO2 incubator. A volume 20 μL of diluted PMA/Ionomycin (81 nM/1.3 uM respectively, ebioscience, catalog number 00-4970-93) in RMPI 1640 complete media were added to each well. After incubation at 37° C. in 5% CO2 incubator for 20 h, supernatants were harvested. IL-2 concentration was assessed by ELISA (IL2 Duoset, R&D Systems, catalog number DY202). Colorimetric intensity at 450 nm was read by Spectramax plate reader and analyzed with Softmax Pro software. Cell viability was assessed by Cell Titer Glo kit (Promega, catalog number G7571) using Victor Luminescence reader (Victor 3V 4202938 by Perkin Elmer).

SMILES: Cc1c(C(=O)Nc2cnc(-n3nccn3)c(Cl)c2)cnn1-c1cccc2ncccc12 [Cpd 39, N-(5-Chloro-6-(2H-1,2,3-triazol-2-yl)pyridin-3-yl)-5-methyl-1-(quinolin-5-yl)-1H-pyrazole-4-carboxamide]
- IC50 [1]: 955 nM
- IC50 (OCI-Ly3 cells): ~1120 nM
- IC50 [2]: 759 nM
- IC50 [3]: 1950 nM
- IC50 (TMD8 cells): 14400 nM
- IC50 (Jurkat cells): 1970 nM

SMILES: COc1ncc(NC(=O)c2cnn(-c3cncc4ccccc34)c2C(F)(F)F)cc1C#N [Cpd 24, N-(5-cyano-6-methoxypyridin-3-yl)-1-(isoquinolin-4-yl)-5-(trifluoromethyl)-1H-pyrazole-4-carboxamide]
- IC50 [1]: 129 nM
- IC50 (OCI-Ly3 cells): ~1950 nM
- IC50 [2]: 74 nM
- IC50 [3]: 93 nM
- IC50 (TMD8 cells): ~10000 nM
- IC50 (Jurkat cells): 740 nM

SMILES: O=C(Nc1cnc(-n2nccn2)c(Cl)c1)c1cnn(-c2cccc3ccccc23)c1C(F)(F)F [Cpd 2, N-(5-Chloro-6-(2H-1,2,3-triazol-2-yl)pyridin-3-yl)-1-(naphthalen-1-yl)-5-(trifluoromethyl)-1H-pyrazole-4-carboxamide]
- IC50 [1]: 28 nM
- IC50 (OCI-Ly3 cells): 420 nM
- IC50 [2]: 12 nM
- IC50 [3]: 52 nM
- IC50 (TMD8 cells): 13800 nM
- IC50 (Jurkat cells): 59 nM

SMILES: COC(C)c1c(C(=O)Nc2cnc(-n3nccn3)c(Cl)c2)cnn1-c1cccc2ncccc12 (centres unmarked) [Cpd 35, N-(5-Chloro-6-(2H-1,2,3-triazol-2-yl)pyridin-3-yl)-5-(1-methoxyethyl)-1-(quinolin-5-yl)-1H-pyrazole-4-carboxamide]
- IC50 [1]: 2880 nM
- IC50 (OCI-Ly3 cells): 10700 nM
- IC50 [2]: 813 nM
- IC50 [3]: 6030 nM
- IC50 (TMD8 cells): 11000 nM
- IC50 (Jurkat cells): 3240 nM

SMILES: O=C(Nc1cnc(-c2ncco2)c(Cl)c1)c1cnn(-c2cncc3ccccc23)c1C(F)(F)F [Cpd 50, N-(5-Chloro-6-(oxazol-2-yl)pyridin-3-yl)-1-(isoquinolin-4-yl)-5-(trifluoromethyl)-1H-pyrazole-4-carboxamide]
- IC50 [1]: 47 nM
- IC50 (OCI-Ly3 cells): 90 nM
- IC50 [2]: 20 nM
- IC50 [3]: 107 nM
- IC50 (TMD8 cells): 7080 nM
- IC50 (Jurkat cells): 31 nM

SMILES: O=C(Nc1cnc(-n2nccn2)c(Cl)c1)c1cnn(-c2ccc(F)c3ncccc23)c1C(F)(F)F [Cpd 40, N-(5-Chloro-6-(2H-1,2,3-triazol-2-yl)pyridin-3-yl)-1-(8-fluoroquinolin-5-yl)-5-(trifluoromethyl)-1H-pyrazole-4-carboxamide]
- IC50 [1]: 35 nM
- IC50 (OCI-Ly3 cells): 150 nM
- IC50 [2]: 48 nM
- IC50 [3]: 30 nM
- IC50 (TMD8 cells): 6170 nM
- IC50 (Jurkat cells): 95 nM

SMILES: O=C(Nc1cnc(-n2nccn2)c(Cl)c1)c1cnn(-c2cccc3occc23)c1C(F)(F)F [Cpd 34, 1-(Benzofuran-4-yl)-N-(5-chloro-6-(2H-1,2,3-triazol-2-yl)pyridin-3-yl)-5-(trifluoromethyl)-1H-pyrazole-4-carboxamide]
- IC50 [1]: 7 nM
- IC50 (OCI-Ly3 cells): ~220 nM
- IC50 [2]: 9 nM
- IC50 [3]: ~11 nM
- IC50 (TMD8 cells): ~12000 nM
- IC50 (Jurkat cells): 16 nM

SMILES: O=C(Nc1cnc(-n2cccn2)c(Cl)c1)c1cnn(-c2cncc3ccccc23)c1C(F)(F)F [Cpd 46, N-(5-Chloro-6-(1H-pyrazol-1-yl)pyridin-3-yl)-1-(isoquinolin-4-yl)-5-(trifluoromethyl)-1H-pyrazole-4-carboxamide]
- IC50 [1]: 32 nM
- IC50 (OCI-Ly3 cells): 630 nM
- IC50 [2]: 56 nM
- IC50 [3]: ~46 nM
- IC50 (TMD8 cells): 9330 nM
- IC50 (Jurkat cells): 22 nM

SMILES: O=C(Nc1ccc(-n2nccn2)c(Cl)c1)c1cnn(-c2cccc3ccncc23)c1C(F)(F)F [Cpd 11, N-(3-chloro-4-(2H-1,2,3-triazol-2-yl)phenyl)-1-(isoquinolin-8-yl)-5-(trifluoromethyl)-1H-pyrazole-4-carboxamide]
- IC50 (OCI-Ly3 cells): ~9550 nM
- IC50 [2]: 977 nM
- IC50 [3]: ~13500 nM
- IC50 (TMD8 cells): 12600 nM
- IC50 (Jurkat cells): 680 nM
